The text below walks through data of patent EP4775582A1, “MACROCYCLIC COMPOUND AND ANTIBODY-DRUG CONJUGATE THEREOF” (Genfleet Therapeutics (Shanghai) Inc., priority 2023, dated 2025).

One data set deals with AsPC-1 p-ERK. As to the kind of experiment: Cell p-ERK assay (HTRF), AsPC-1 cells. In kind it is cell-based, human. Conditions: AsPC-1 cells (KRAS G12D), 3 h incubation; read-out: AsPC-1 p-ERK IC50. A digest of the protocol: (§1)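 AsPC-1 (10000/well) or NCI-H441 (20000/well) cells were seeded overnight and then exposed to compound for 3 h at 37 °C. Lysates were probed for ERK phospho-T202/Y204 by HTRF with a 4-hour antibody incubation. IC50 values came from four-parameter fits of inhibition against log concentration.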

For another data set, the target named is KRAS WT-cRAF (Homo sapiens, UniProt P01116+P62937). The experiment in a line: Assay for binding of KRAS to cRAF (HTRF, with Cyclophilin A), KRAS WT. Conditions: read-out: KRAS WT-cRAF binding assay, GPPNP-KRAS WT, IC50 values.
Sequence of KRAS WT-cRAF (P01116 1-188 isoform P01116-2): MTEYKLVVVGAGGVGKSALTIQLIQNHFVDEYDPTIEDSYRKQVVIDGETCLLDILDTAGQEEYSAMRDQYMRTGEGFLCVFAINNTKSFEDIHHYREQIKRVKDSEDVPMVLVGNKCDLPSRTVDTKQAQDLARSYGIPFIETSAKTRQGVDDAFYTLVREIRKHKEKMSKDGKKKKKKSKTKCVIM
Sequence of KRAS WT-cRAF (P62937 whole entry): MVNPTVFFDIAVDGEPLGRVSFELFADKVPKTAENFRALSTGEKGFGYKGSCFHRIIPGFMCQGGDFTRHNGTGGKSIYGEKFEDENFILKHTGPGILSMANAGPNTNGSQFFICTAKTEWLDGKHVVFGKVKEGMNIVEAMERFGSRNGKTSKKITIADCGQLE
Another data set relates to AsPC-1 cells. The experiment in a line: 3D cell proliferation assay (CellTiter Glo-3D), AsPC-1. In kind it is cell-based, human. The note with it: AsPC-1 cells (KRAS G12D), 3D, 2% FBS, 5 days; read-out: AsPC-1 AP IC50. A digest of the protocol:
(§2)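 Cells seeded at 800 per well (AsPC-1, NCI-H441) in 2% FBS medium and incubated overnight at 37 °C, 5% CO2. Compounds added next day from 10× stock, then 5 days' further culture. Viability read by CellTiter-Glo luminescence; IC50 from four-parameter fit of inhibition versus log concentration.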
Background: Cellular ATP, detected with luciferase, serves as a proxy for viable cell number.

A short description of data set [1]: Human liver microsomal stability experiment. Conditions: human liver microsomes, NADPH, 37 °C. The class given is in vitro ADME. As for the experimental part:
This experiment was intended to investigate the metabolic stability of the test compounds in human liver microsomes. The materials used in the experiment included 10 mM solutions of the test compounds and the control sample, human liver microsomes, and reduced nicotinamide adenine dinucleotide phosphate (NADPH) powder. In the experiment, a 100 mM potassium phosphate buffer was used as the buffer system.
The liver microsome working solution was prepared by diluting the liver microsome stock solution to 0.75 mg/mL using the 100 mM potassium phosphate buffer. Then, 5 µL of the 10 mM stock solution of the test compound was taken, and 195 µL of methanol was added. The mixture was well mixed to prepare a working solution A with a concentration of 0.25 mM. Subsequently, the working solution A was diluted to 1.5 µM using the liver microsome working solution to prepare a compound-liver microsome mixed solution. Additionally, NADPH powder was dissolved in 100 mM potassium phosphate buffer to prepare a 6 mM NADPH solution. The compound-liver microsome mixed solution was dispensed into a 96-well plate at 30 µL/well, with labeled time points of 0 min, 30 min, and 60 min. For 0-min samples, 180 µL of acetonitrile containing 100 ng/mL tolbutamide and 15 µL of the NADPH solution were added directly. The 96-well plate and the NADPH solution were then preheated under a 37 °C water bath for 5 min. After the preheating, 15 µL of the NADPH solution was added to each of the 30-min and 60-min sample wells. The plate was gently shaken for mixing and then incubated under the 37 °C water bath for the corresponding time. After the incubation was completed, 180 µL of acetonitrile containing 100 ng/mL tolbutamide was added to each sample well. The plate was sealed with a sealing film, shaken for 10 min (800 rpm/min), and then centrifuged for 15 min (4000 rpm). After the centrifugation, 50 µL of the supernatant was taken and added to a 96-well plate containing 150 µL of deionized water, and then the plate was sealed and shaken for 10 min (800 rpm) for uniform mixing. Subsequently, sample analysis was performed using liquid chromatography-tandem mass spectrometry (LC-MS/MS). […] For humans, the microsome protein-to-liver weight ratio was 45 mg/g, and the liver-to-body weight ratio was 20.7 g/kg.

Another data set deals with NCI-H441 cells. As to the kind of experiment: 3D cell proliferation assay (CellTiter Glo-3D), NCI-H441. The class given is cell-based, human. Conditions: NCI-H441 cells (KRAS G12V), 2% FBS, 5 days, read-out: H441 AP IC50. A digest of the protocol: as §2
The next data set relates to H441 p-ERK. As to the kind of experiment: Cell p-ERK assay (HTRF), NCI-H441 cells. The class given is cell-based, human. Conditions: NCI-H441 cells (KRAS G12V), 3 h incubation. A digest of the protocol:
as §1
On the technique in general: Time-resolved FRET reads energy transfer from a long-lived donor to a nearby acceptor.

A short description of data set [2]: Solubility experiment (HPLC, external standard). In kind it is physicochemical. Conditions: pH 7.4 medium, 37 °C, 24 h. A digest of the protocol:
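Solid compound (about 1 mg per 1 mL medium) was shaken at 37 °C for 24 h in pH 1.2, 4.5 or 7.4 media, then centrifuged and the supernatant diluted with acetonitrile/water 50/50. Concentration in μg/mL was found by HPLC against an external standard prepared from a DMSO stock.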

For a further data set, the target named is KRAS G12V-cRAF (Homo sapiens, UniProt P01116+P62937, G12V). The experiment in a line: Assay for binding of KRAS to cRAF (HTRF, with Cyclophilin A), KRAS G12V. Conditions: read-out: KRAS G12V-cRAF binding assay, GPPNP-KRAS G12V, IC50 values.
Sequence of KRAS G12V-cRAF (P01116 1-188 isoform P01116-2 G12V): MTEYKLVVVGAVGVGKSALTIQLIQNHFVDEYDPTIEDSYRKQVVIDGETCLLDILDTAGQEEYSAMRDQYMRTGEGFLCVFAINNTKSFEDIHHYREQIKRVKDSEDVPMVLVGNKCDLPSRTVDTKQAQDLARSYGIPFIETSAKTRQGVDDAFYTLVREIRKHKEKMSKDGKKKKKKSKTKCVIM
Sequence of KRAS G12V-cRAF (P62937 whole entry): as the sequence (P62937 whole entry) above

Method for KRAS G12V-cRAF: (§3) The plate was centrifuged at 1000 rpm for 1 min and then incubated in the thermostatic incubator at 20 °C for 30 min. […] The plate was centrifuged at 1000 rpm for 1 min and then incubated in the thermostatic incubator at 20 °C for 60 min. […] The working solution was added to the aforementioned assay plate at 5 µL/well. The plate was centrifuged at 1000 rpm for 1 min and then incubated in the thermostatic incubator at 20 °C for 60 min.
Method for KRAS WT-cRAF: as §3

For `CCn1c(-c2cc(C#CCN3CCC(C#N)(CN)CC3)cnc2[C@H](C)OC)c2c3cc(ccc31)-c1coc(n1)C[C@H](NC(=O)[C@H]1[C@@H]3COC[C@@H]31)C(=O)N1CCC[C@H](N1)C(=O)OCC(C)(C)C2` (atropisomer, axis not shown; (Ra)) [Compound Z166, (1R,5S,6r)-N-((6^3S,4S,Z)-(Ra)-1^2-(5-(3-(4-(aminomethyl)-4-cyanopiperidin-1-yl)prop-1-yn-1-yl)-2-((S)-1-methoxyethyl)pyridin-3-yl)-1^1-ethyl-10,10-dimethyl-5,7-dioxo-6^1,6^2,6^3,6^4,6^5,6^6-hexahydro-1^1H-8-oxa-2(4,2)-oxazola-1(5,3)-indola-6(1,3)-pyridazinacycloundecaphane-4-yl)-3-oxabicyclo[3.1.0]hexane-6-carboxamide], the IC50 in the data set on AsPC-1 p-ERK was found to be 0.1 nM; at KRAS WT-cRAF, 38.9 nM; in the data set on AsPC-1 cells, 0.12 nM; with NCI-H441 cells, 0.37 nM; with H441 p-ERK it was 0.2 nM; on KRAS G12V-cRAF, 12.9 nM. In addition, in data set [1], the “T1/2” value stood at 19.6 min. For the same compound, the “Solubility at pH 7.4 (µg/mL)” value in data set [2] is listed as 26.76 µg/mL.

Broadly, the IC50 is the concentration that inhibits the measured activity by half. One may read the Solubility as how much of the substance goes into solution per volume.
